Our source for the IC50 values is patent US20150011508A1, “COMPOUNDS AND COMPOSITIONS AS C-KIT KINASE INHIBITORS” (priority 2011, published 2015).

For this assay, the target named is T1, c-kit (Homo sapiens, UniProt P10721).
T1 construct: human Mo7e cells which endogenously express c-kit; endogenous in cells; host or cells: human Mo7e cells (SCF-dependent promegakaryocytic leukemia line)
Description: Mo7e cell proliferation assay (SCF dependent proliferation). Type of assay: cell-based. As to conditions: human Mo7e cells stimulated with human recombinant SCF, 48 h, CellTiter Glo, 1% FBS (footnote). As to the method: Compounds of Formula (I) and Formula (II) provided herein were assayed to measure their capacity to inhibit c-kit and PDGFR kinases using the appropriate assay described below: c-Kit inhibition was evaluated using the Mo7e cell proliferation assay, and PDGFR inhibition was evaluated using the Rat A10 cell proliferation assay and the Human TGHA-VSMC cell proliferation assay.
The compounds of Table 1 and Table 2 were tested for inhibition of SCF dependent proliferation using human Mo7e cells which endogenously express c-kit in a 384 well format. […] After 48 hours of incubation at 37° C., cell viability was measured by adding 25 uL of CellTiter Glo (Promega) to the cells and the luminescence was measured by a CLIPR CCD camera (Molecular Devices).
The IC50 value is given as that concentration of the test compound in question that provoke a response halfway between the baseline and maximum responses.
For orientation: In ATP-based viability assays light output follows the ATP content of the culture.

pIC50: −log10 of the molar value.

T1 sequence (P10721 26-976): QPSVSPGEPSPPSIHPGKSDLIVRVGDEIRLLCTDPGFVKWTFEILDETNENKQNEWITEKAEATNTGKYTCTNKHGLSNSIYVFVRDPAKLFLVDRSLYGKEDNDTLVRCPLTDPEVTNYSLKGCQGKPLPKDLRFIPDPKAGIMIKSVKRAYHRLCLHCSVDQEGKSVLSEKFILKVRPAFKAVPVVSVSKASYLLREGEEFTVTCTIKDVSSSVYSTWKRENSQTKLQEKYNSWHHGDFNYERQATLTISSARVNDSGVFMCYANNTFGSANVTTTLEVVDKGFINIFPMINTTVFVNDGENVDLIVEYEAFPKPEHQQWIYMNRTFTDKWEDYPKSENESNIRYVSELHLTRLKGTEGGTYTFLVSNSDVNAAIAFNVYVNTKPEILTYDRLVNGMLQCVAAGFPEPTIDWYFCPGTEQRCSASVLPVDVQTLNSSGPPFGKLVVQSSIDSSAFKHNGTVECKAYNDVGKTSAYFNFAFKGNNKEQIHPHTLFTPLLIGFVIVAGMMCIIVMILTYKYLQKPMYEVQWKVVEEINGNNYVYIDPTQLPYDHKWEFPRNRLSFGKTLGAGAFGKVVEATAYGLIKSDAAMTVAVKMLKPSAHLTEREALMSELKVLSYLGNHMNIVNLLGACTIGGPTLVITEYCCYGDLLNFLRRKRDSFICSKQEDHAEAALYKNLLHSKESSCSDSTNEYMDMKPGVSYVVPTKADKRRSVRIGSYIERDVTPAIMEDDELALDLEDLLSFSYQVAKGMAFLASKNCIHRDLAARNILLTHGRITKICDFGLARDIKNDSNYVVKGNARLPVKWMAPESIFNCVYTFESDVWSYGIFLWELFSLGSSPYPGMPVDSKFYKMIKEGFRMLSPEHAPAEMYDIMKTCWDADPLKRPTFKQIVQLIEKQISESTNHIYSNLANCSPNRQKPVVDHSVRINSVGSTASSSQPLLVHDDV

Consider `Cc1ccc(-c2noc(CN)n2)cc1NC(=O)c1cnc2ccccn12` [F217], for which the negative-log IC50 (pIC50) (Table 2) was 5.99.
As for `CC(=O)c1sc(-c2ccc3ncc(C(=O)Nc4cc(-c5noc(C)n5)ccc4C)n3c2)nc1C` [F256, 6-(5-acetyl-4-methylthiazol-2-yl)-N-(2-methyl-5-(5-methyl-1,2,4-oxadiazol-3-yl)phenyl)imidazo[1,2-a]pyridine-3-carboxamide], under “Table 1”, the negative logarithm of the IC50 (pIC50) is 7.27.
The same measure, in the same setting: next, `CNC(=O)Cn1nc(C)c(-c2ccc3ncc(C(=O)Nc4cc(-c5noc(C)n5)ccc4C)n3c2)c1C` [F260, 6-(3,5-dimethyl-1-(2-(methylamino)-2-oxoethyl)-1H-pyrazol-4-yl)-N-(2-methyl-5-(5-methyl-1,2,4-oxadiazol-3-yl)phenyl)imidazo[1,2-a]pyridine-3-carboxamide]: 7.49; `Cc1ccc(-c2noc(CCC(C)(C)O)n2)cc1NC(=O)c1cnc2cc(N3CCOC3=O)ccn12` [F61]: 6.57.
On the same count and under the same terms, for `Cc1ccc(-c2noc(C[C@@H](O)C(F)(F)F)n2)cc1NC(=O)c1cnc2ccccn12` [F31] the value was 7.24.
`COCCCc1nc(-c2ccc(F)c(NC(=O)c3cnc4ccccn34)c2)no1` [F139]: the pIC50 (Table 2) is 6.40.
For `Cc1ccc(-c2nc(C(C)C)no2)cc1NC(=O)c1cnc2ccccn12` [F107], the pIC50 (Table 2) was 6.92.
Still for that read-out and setting: for `CC(=O)NCCCc1nc(-c2ccc(C)c(NC(=O)c3cnc4ccccn34)c2)no1` [F222] the value was 5.88.
Regarding `Cc1nc(-c2ccc(C)c(NC(=O)c3cnc4ccc(-c5cccnc5C)cn34)c2)no1` [F82], the pIC50 (Table 1) was 7.28.
Same read-out and setting: for `Cc1ccc(-c2noc(CCC(C)(O)C(F)(F)F)n2)cc1NC(=O)c1cnc2ccccn12` (centres unmarked) [F66, N-(2-methyl-5-(5-(4,4,4-trifluoro-3-hydroxy-3-methylbutyl)-1,2,4-oxadiazol-3-yl)phenyl)imidazo[1,2-a]pyridine-3-carboxamide] the value was 7.57; for `Cc1ccc(-c2noc(N(C)CC(C)(C)O)n2)cc1NC(=O)c1cnc2cc(F)ccn12` [F65], 7.00; for `CC(=O)CCc1nc(-c2ccc(C)c(NC(=O)c3cnc4ccccn34)c2)no1` [F5], 7.49.
The same measure, in the same setting: for `Cc1nc(-c2ccc(C)c(NC(=O)c3cnc4ccc(-c5cnn(C)c5)cn34)c2)no1` [F44] the value was 7.60.
For the compound `COCC(=O)NCc1nc(-c2ccc(C)c(NC(=O)c3cnc4ccccn34)c2)no1` [F132], the negative logarithm of the IC50 (pIC50) (Table 2) was 6.50.
On the same count and under the same terms, next, `Cc1ccc(-c2noc(CNC(=O)OCCF)n2)cc1NC(=O)c1cnc2ccccn12` [F157]: 6.81; `Cc1nc(-c2ccc(C)c(NC(=O)c3cnc4ccc(-c5csc(N6CCOCC6)n5)cn34)c2)no1` [F176]: 6.65.
As to `Cc1nc(-c2ccc(C)c(NC(=O)c3cnc4ccc(-c5c(C)nn(CCN6CCOCC6)c5C)cn34)c2)no1` [F106, 6-(3,5-dimethyl-1-(2-morpholinoethyl)-1H-pyrazol-4-yl)-N-(2-methyl-5-(5-methyl-1,2,4-oxadiazol-3-yl)phenyl)imidazo[1,2-a]pyridine-3-carboxamide], under “Table 1”, the negative-log IC50 (pIC50) is 7.62.
Still for that read-out and setting: next, `Cc1ccc(-c2noc(CC(C)(O)C(F)(F)F)n2)cc1NC(=O)c1cnc2ccccn12` (centres unmarked) [F15]: 7.09.
For the compound `Cc1ccc(-c2noc([C@@H](C)NC(=O)OC(C)(C)C)n2)cc1NC(=O)c1cnc2ccccn12` [F126], the pIC50 (Table 2) was 6.99.
Same read-out and setting: for `Cc1ccc(-c2noc(C(CC(F)(F)F)N(C)C)n2)cc1NC(=O)c1cnc2ccccn12` (centres unmarked) [F171] the value was 6.74; for `Cc1nc(-c2ccc(C)c(NC(=O)c3cnc4ccc(-c5nc(C)c(C(=O)NCCN6CCOCC6)s5)cn34)c2)no1` [F245], 6.92.
As to `CCN(CC)C(=O)CCc1nc(-c2ccc(C)c(NC(=O)c3cnc4ccccn34)c2)no1` [F4], the pIC50 (Table 1) is 7.17.
Still for that read-out and setting: for `Cc1ccc(-c2noc(CCC(C)(O)C(F)(F)F)n2)cc1NC(=O)c1cnc2ccc(F)cn12` (centres unmarked) [F71] the value was 7.27; for `Cc1ccc(-c2noc(CCCC(F)(F)F)n2)cc1NC(=O)c1cnc2ccccn12` [F80], 8.30.
As for `COCc1n[nH]c(-c2ccc3ncc(C(=O)Nc4cc(-c5noc(CCC(C)(C)O)n5)ccc4C)n3c2)n1` [F214], the negative-log IC50 (pIC50) (Table 2) is 6.09.
On the same count and under the same terms, next, `Cc1nc(-c2ccc(C)c(NC(=O)c3cnc4ccc(-c5nc(C)c(C(=O)NCCN6CCN(C)CC6)s5)cn34)c2)no1` [F243]: 6.71.
Turning to `COP(=O)(OC)OC(C)(CCc1nc(-c2ccc(C)c(NC(=O)c3cnc4cc(C)ccn34)c2)no1)C(F)(F)F` (single isomer, unassigned) [F267], the negative logarithm of the IC50 (pIC50) (Table 1) was 7.25.
The same measure, in the same setting: next, `Cc1ccc(-c2noc(CNS(=O)(=O)C(C)C)n2)cc1NC(=O)c1cnc2ccccn12` [F25]: 7.10.
For the compound `Cc1ccc(-c2noc(CCC(C)(C)O)n2)cc1NC(=O)c1cnc2ccc(-n3ccnc3)cn12` [F221], the pIC50 (Table 2) is 5.90.
With `Cc1nc(-c2ccc(C)c(NC(=O)c3cnc4ccc(-c5cccnc5F)cn34)c2)no1` [F92], under “Table 1”, the pIC50 was 7.80.
Regarding `COCCOCc1nc(-c2ccc(C)c(NC(=O)c3cnc4ccccn34)c2)no1` [F26], the pIC50 (Table 1) was 7.23.
For `Cc1nc(-c2ccc(C)c(NC(=O)c3cnc4ccc(-c5c[nH]nc5C)cn34)c2)no1` [F257, 6-(3-methyl-1H-pyrazol-4-yl)-N-(2-methyl-5-(5-methyl-1,2,4-oxadiazol-3-yl)phenyl)imidazo[1,2-a]pyridine-3-carboxamide], the pIC50 (Table 1) is 7.72.
Regarding `Cc1ccn2c(C(=O)Nc3cc(-c4noc(CCC(O)C(F)(F)F)n4)ccc3C)cnc2c1` (centres unmarked) [F98], the pIC50 (Table 1) was 7.74.
As to `Cc1ccn2c(C(=O)Nc3cc(-c4noc(CC[C@@](C)(O)C(F)(F)F)n4)ccc3C)cnc2c1` (single isomer, unassigned) [F76], the negative-log IC50 (pIC50) (Table 1) is 7.31.
With `Cc1nc(-c2ccc(C)c(NC(=O)c3cnc4ccc(C#N)cn34)c2)no1` [F185], where the note is “Table 2”, the pIC50 is 6.29.
The same measure, in the same setting: next, `Cc1ccc(-c2noc(CF)n2)cc1NC(=O)c1cnc2ccccn12` [F161]: 6.76.
Take `Cc1ccn2c(C(=O)Nc3cc(-c4noc(CC(O)(C(F)(F)F)C(F)(F)F)n4)ccc3C)cnc2c1` [F254]: the negative logarithm of the IC50 (pIC50) (Table 1) is 7.29.
For the compound `COC(=O)NCc1nc(-c2ccc(C)c(NC(=O)c3cnc4ccc(CCC(=O)O)cn34)c2)no1` [F230], the negative-log IC50 (pIC50) (Table 2) is less than 5.00.
Still for that read-out and setting: for `Cc1ccc(Nc2noc(C(C)C)n2)cc1NC(=O)c1cnc2ccccn12` [F174] the value was 6.55; for `Cc1ccc(-c2noc(CCC(C)(C)O)n2)cc1NC(=O)c1cnc2ccc(CCN3CCOCC3)cn12` [F184], 6.80.
For the compound `Cc1nc(-c2ccc(C)c(NC(=O)c3cnc4ccccn34)c2)no1` [F11], the pIC50 (Table 1) is 7.07.
Consider `CCNC(=O)CCc1nc(-c2ccc(C)c(NC(=O)c3cnc4ccccn34)c2)no1` [F118], for which the pIC50 (Table 2) is 6.28.
In the case of `COCCOC(=O)NCCc1nc(-c2ccc(C)c(NC(=O)c3cnc4ccccn34)c2)no1` [F123], for the setting “Table 2”, the pIC50 is 6.52.
Same read-out and setting: for `Cc1ccc(-c2noc(C(C)(C)CO)n2)cc1NC(=O)c1cnc2ccccn12` [F109] the value was 6.17; for `Cc1ccc(-c2noc(C(C)O)n2)cc1NC(=O)c1cnc2ccccn12` (centres unmarked) [F198], 6.59; for `Cc1nc(-c2ccc(C)c(NC(=O)c3cnc4ccc(-c5nc(C)c(C(=O)NCCO)s5)cn34)c2)no1` [F242], 6.81.
`COP(=O)(OC)OC(C)(CCc1nc(-c2ccc(C)c(NC(=O)c3cnc4cc(C)ccn34)c2)no1)C(F)(F)F` (single isomer, unassigned) [F269]: the negative-log IC50 (pIC50) (Table 1) was 7.30.

The pIC50 is the IC50 on a negative log10 scale, so that one unit is a factor of ten.
